From patent publication US9776965B2, “Pyrrolidin-2-one and piperidin-2-one derivatives as 11-beta hydroxysteroid dehydrogenase inhibitors” (Janssen Pharmaceutica N.V., priority 2004, dated 2017)

Experiments:
11b-HSD2 [1] = molecular target: T1, 11b-HSD2 (Homo sapiens, UniProt P80365); test: Enzymatic assay, 11b-HSD2 dependent dehydrogenase activity; type: biochemical; conditions: recombinant protein, 100 nM cortisol, 45 min at 37 C; read-out: [C1] HSD2 prot Dehydro Score
T1 sequence (P80365 1-405): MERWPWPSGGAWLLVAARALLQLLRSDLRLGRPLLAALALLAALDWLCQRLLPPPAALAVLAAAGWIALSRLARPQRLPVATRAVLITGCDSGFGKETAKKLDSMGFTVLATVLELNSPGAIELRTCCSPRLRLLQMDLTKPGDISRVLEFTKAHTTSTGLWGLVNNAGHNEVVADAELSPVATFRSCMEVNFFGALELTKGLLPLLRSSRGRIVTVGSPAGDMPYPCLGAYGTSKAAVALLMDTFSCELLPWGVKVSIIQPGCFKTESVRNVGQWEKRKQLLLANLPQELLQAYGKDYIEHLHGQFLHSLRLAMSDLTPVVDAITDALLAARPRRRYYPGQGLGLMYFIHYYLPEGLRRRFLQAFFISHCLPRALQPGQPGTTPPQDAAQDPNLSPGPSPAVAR
Protocol: The effects on the 11b-HSD2 dependent dehydrogenase activity was studied in a reaction mixture containing 0.1M sodium phosphate buffer pH 7.5, 300 μM NAD, 100 nM cortisol (of which 2 nM is 3H-radio labelled), 1 μl drug and/or solvent and 2.5 μg recombinant protein in a final volume of 100 μl.
All incubations were performed for 45 min at 37 C in a water bath. The reaction was stopped by adding 100 μl acetonitrile containing 20 μg corticosterone as internal standard. After centrifugation, the product formation was analysed in the supernatant by HPLC on a Hypersyl BDS-C18 column using 0.05 mM ammonium acetate/methanol (50/50) as solvent. In all of the aforementioned assays, the drugs to be tested were taken from a stock solution and tested at a final concentration ranging from […] to 3.10^−9M. From the thus obtained dose response curves, the pIC50 value was calculated and scored as follows; Score 1=pIC50 value<5, Score 2=pIC50 value in the range of 5 to 6, Score 3=pIC50 value>6. (in this table NT stands for Not Tested).

11b-HSD2 [2] = molecular target: T1, 11b-HSD2; test: Cellular assay, 11b-HSD2 activity in HepG2 cells; type: cell-based; set-up: endogenous in cells; host or cells: HepG2 (ATCC HB-8065); conditions: 4 hour pre-incubation; for IC50: read-out: [C2] HSD2 cellular HepG2 Score
Protocol: The effects on 11b-HSD2 activity was studied in HepG2 and LCC-PK1-cells HepG2-cells (ATCC HB-8065) were seeded in 12 well plates at a density of 100,000 cells/ml and grown at 37 C in a humidified 5% CO2 atmosphere in MEM-Rega-3 medium supplemented with 10% heat inactivated foetal calf serum, 2 mM L-glutamine and sodium bicarbonate). Medium was refreshed twice a week.
Following a 4 hour pre-incubation with test compound, 0.5 μCi ^3H-cortisol or corticosterone, was added to the cultures. One hour later, the medium was extracted on Extrelut^3-columns with 15 ml diethyl ether and the extract was analysed by HPLC as described above.
As for the enzymatic assays, the compounds to be tested were taken from a stock solution and tested at a final concentration ranging from […] to 3.10^−9M. From the thus obtained dose response curves, the pIC50 value was calculated and scored as follows; Score 1=pIC50 value<5, Score 2=pIC50 value in the range of 5 to 6, Score 3=pIC50 value>6. Some of the thus obtained results are summarized in the table below (in this table NT stands for Not Tested).

11b-HSD1 [3] = molecular target: 11b-HSD1 (Homo sapiens, UniProt P28845); test: Enzymatic assay, 11b-HSD1 dependent conversion of cortisone into cortisol (reductase activity); type: biochemical; conditions: recombinant protein, 2 μM cortisone, 45 min at 37 C; for IC50: read-out: [C1] HSD1-prot Reduct Score
11b-HSD1 (Homo sapiens, UniProt P28845), sequence (P28845 whole entry): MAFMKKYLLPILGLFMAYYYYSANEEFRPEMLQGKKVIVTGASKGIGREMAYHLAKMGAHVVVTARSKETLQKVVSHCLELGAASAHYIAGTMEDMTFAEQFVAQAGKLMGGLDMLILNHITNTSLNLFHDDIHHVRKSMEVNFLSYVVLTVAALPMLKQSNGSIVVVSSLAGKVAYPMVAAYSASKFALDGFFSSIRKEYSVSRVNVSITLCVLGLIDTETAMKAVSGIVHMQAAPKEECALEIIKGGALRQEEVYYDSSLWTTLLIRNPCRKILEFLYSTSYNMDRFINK
Procedure, shortened: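 Recombinant human 11b-HSD1 (11 µg) with 2 µM cortisone and 180 µM NADPH in 30 mM Tris-HCl pH 7.2, 1 mM EDTA, incubated 45 min at 37 °C. Cortisol formation was measured by HPLC with a corticosterone internal standard. Compounds were tested from 10^−5 M to 3.10^−9 M, and pIC50 was scored as 1 (<5), 2 (5–6) or 3 (>6).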

11b-HSD1 [4] = molecular target: T2, 11b-HSD1 (Mus musculus, UniProt P50172); test: Cellular assay, 11b-HSD1 activity in differentiated 3T3-L1 cells; type: cell-based; conditions: 4 hour pre-incubation; for IC50: read-out: [C2] HSD1 cellular 3T3-L1 Score
T2 construct: Fibroblasts were differentiated into adipocytes; endogenous in cells; host or cells: differentiated 3T3-L1 cells (ATCC-CL-173)
T2 sequence (P50172 whole entry): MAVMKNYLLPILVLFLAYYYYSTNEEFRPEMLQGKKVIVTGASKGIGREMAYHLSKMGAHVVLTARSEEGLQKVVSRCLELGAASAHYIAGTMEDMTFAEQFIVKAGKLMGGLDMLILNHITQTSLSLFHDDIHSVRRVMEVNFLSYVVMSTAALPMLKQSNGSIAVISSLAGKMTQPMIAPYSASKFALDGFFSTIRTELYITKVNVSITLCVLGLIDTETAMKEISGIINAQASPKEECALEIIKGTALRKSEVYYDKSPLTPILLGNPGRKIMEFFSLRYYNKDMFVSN
Procedure, shortened: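 Differentiated mouse 3T3-L1 adipocytes pre-incubated 4 hours with compound (final 3.10^−9 to 10^−5 M), then 0.5 μCi ³H-cortisone or dehydrocorticosterone added for one hour. Medium extracted with diethyl ether and steroids resolved by HPLC; pIC50 from dose-response curves, reported as scores.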

Row | SMILES | IC50 (11b-HSD2 [1]) [µM] | IC50 (11b-HSD2 [2]) [µM] | IC50 (11b-HSD1 [3]) [µM] | IC50 (11b-HSD1 [4]) [µM] | melting point [°C] | [C2] HSD2 cellular HepG2 Score (11b-HSD2 [2]) | [C1] HSD1-prot Reduct Score (11b-HSD1 [3]) | [C2] HSD1 cellular 3T3-L1 Score (11b-HSD1 [4])
1 | C[C@@H](c1ccccc1)N1CC[C@@H](Cc2c(F)cccc2F)C1=O [Compound 70] | – | > 10 | > 10 | < 1 | – | – | – | –
2 | Cc1cccc(C)c1C[C@H]1CCN([C@@H](C)c2ccccc2)C1=O [Compound 77] | – | – | – | – | – | 1 (Score 1=pIC50 value<5) | 3 (Score 3=pIC50 value>6) | 3 (Score 3=pIC50 value>6)
3 | CC[C@H](c1ccccc1)N1CC[C@@H](Cc2c(Cl)cccc2Cl)C1=O [Compound 97] | 1 to 10 | > 10 | < 1 | > 10 | – | – | – | –
4 | COc1ccccc1C[C@H]1CCN([C@@H](C)c2ccccc2)C1=O [Compound 7] | > 10 | > 10 | 1 to 10 | < 1 | – | – | – | –
5 | Cc1ccccc1C(C)[C@@H]1CCN([C@@H](C)c2ccccc2)C1=O (stereo partly shown) [Compound 162] | 1 to 10 | > 10 | < 1 | < 1 | – | – | – | –
6 | Cc1cccc(C)c1C[C@@H]1CCN([C@@H](C)c2ccccc2)C1=O [Compound 149] | – | > 10 | > 10 | < 1 | – | – | – | –
7 | O=C1C(Cc2c(Cl)cccc2Cl)CCN1CCc1ccc(F)cc1 (stereo not shown) [Compound 80] | – | > 10 | < 1 | < 1 | – | – | – | –
8 | Cc1ccccc1C(C)[C@H]1CCN([C@@H](C)c2ccccc2)C1=O (stereo partly shown) [Compound 163] | 1 to 10 | > 10 | < 1 | < 1 | – | – | – | –
9 | COc1ccc(C[C@@H]2CCN([C@@H](C)c3ccccc3)C2=O)c(Cl)c1OC [Compound 119] | 1 to 10 | > 10 | < 1 | < 1 | – | – | – | –
10 | O=C1C(Cc2c(Cl)cccc2Cl)CCN1CCc1ccccc1 (stereo not shown) [Compound 32] | > 10 | > 10 | < 1 | < 1 | – | – | – | –
11 | O=C1C(Cc2c(Cl)cccc2Cl)CCN1Cc1ccccc1 (stereo not shown) [Compound 59] | > 10 | > 10 | 1 to 10 | < 1 | – | – | – | –
12 | C[C@@H](c1ccccc1)N1CC[C@H](Cc2c(F)cccc2F)C1=O [Compound 71] | – | > 10 | < 1 | < 1 | – | – | – | –
13 | O=C1C(Cc2ccccc2Cl)CCN1CCc1ccccc1 (stereo not shown) [Compound 30] | > 10 | > 10 | < 1 | < 1 | – | – | – | –
14 | C[C@@H](c1ccccc1)N1CC[C@H](Cc2ccccc2Cl)C1=O [Compound 9] | > 10 | > 10 | 1 to 10 | < 1 | – | – | – | –
15 | C[C@@H](c1ccccc1)N1CC[C@H](Cc2c(Cl)cccc2Cl)C1=O [Compound 13] | > 10 | > 10 | < 1 | < 1 | – | – | – | –
16 | Cc1ccccc1C[C@@H]1CCN([C@@H](C)c2ccccc2)C1=O [Compound 1] | > 10 | > 10 | < 1 | < 1 | – | – | – | –
17 | O=C1C(Cc2cccc(Cl)c2Cl)CCN1CCc1ccccc1 (stereo not shown) [Compound 31] | > 10 | > 10 | 1 to 10 | < 1 | – | – | – | –

Next, values leading:

Row | IC50 (11b-HSD2 [1]) [µM] | IC50 (11b-HSD2 [2]) [µM] | IC50 (11b-HSD1 [3]) [µM] | IC50 (11b-HSD1 [4]) [µM] | melting point [°C] | [C2] HSD2 cellular HepG2 Score (11b-HSD2 [2]) | [C1] HSD1-prot Reduct Score (11b-HSD1 [3]) | [C2] HSD1 cellular 3T3-L1 Score (11b-HSD1 [4]) | SMILES
18 | > 10 | > 10 | > 10 | < 1 | – | – | – | – | Cc1ccccc1CC1CCN(CCc2ccccc2)C1=O (stereo not shown) [Compound 28]
19 | > 10 | > 10 | < 1 | < 1 | 75 to 76 | – | – | – | C[C@@H](c1ccccc1)N1CC[C@@H](Cc2c(Cl)cccc2Cl)C1=O [Compound 14]
20 | > 10 | > 10 | < 1 | < 1 | – | – | – | – | C[C@@H](c1ccccc1)N1CC[C@@H](Cc2ccccc2Cl)C1=O [Compound 10]
21 | > 10 | > 10 | > 10 | < 1 | – | – | – | – | Cc1ccc(CC2CCN(CCc3ccccc3)C2=O)cc1 (stereo not shown) [Compound 35]
22 | > 10 | > 10 | 1 to 10 | < 1 | – | – | – | – | O=C1C(Cc2ccccc2Cl)CCN1Cc1ccccc1 (stereo not shown) [Compound 57]
23 | > 10 | > 10 | > 10 | < 1 | – | – | – | – | Cc1ccc(C[C@@H]2CCN([C@H](C)c3ccccc3)C2=O)cc1 [Compound 27]
24 | > 10 | > 10 | 1 to 10 | < 1 | – | – | – | – | C[C@H](c1ccccc1)N1CC[C@H](Cc2ccccc2Cl)C1=O [Compound 41]
25 | > 10 | > 10 | > 10 | < 1 | – | – | – | – | COc1ccc(C[C@H]2CCN([C@H](C)c3ccccc3)C2=O)cc1 [Compound 65]
26 | > 10 | > 10 | < 1 | < 1 | – | – | – | – | C[C@H](c1ccccc1)N1CC[C@H](Cc2c(Cl)cccc2Cl)C1=O [Compound 45]
27 | – | > 10 | > 10 | < 1 | – | – | – | – | Cc1cccc(C)c1C[C@H]1CCN([C@@H](C)c2ccccc2)C1=O [Compound 148]
28 | – | 1 to 10 | > 10 | < 1 | – | – | – | – | C[C@@H](c1ccccc1)N1CC[C@H](Cc2cc3c(cc2Cl)OCO3)C1=O [Compound 154]
